Test results reported in patent US20250179478A1, “FLUORESCENT METABOLICALLY INCORPORATED NUCLEOSIDES FOR LIVE CELL IMAGING OF RN” (The Trustees of Princeton University, priority 2022, published 2025).

Legend:
[1] = Photophysical properties of fluorescent nucleosides (extinction coefficient, quantum yield); assay type: physicochemical
[2] = tested on: HeLa cells expressing ribonucleoside kinase UCK2 (WT or Y65G); experiment: Epifluorescence microscopy of fluorescent nucleoside incorporation in HeLa cells with inducible UCK2; assay type: cell-based, human; conditions: 500 μM, 12 hr, HeLa cells overexpressing WT or Y65G UCK2, DAPI filter set
Procedure: The method may also include inducing 130 the inducible promoter to overexpress the WT or mutant ribonucleoside kinase UCK2. This may be accomplished by, e.g., exposing the cells to the inducing agent for an appropriate amount of time. In some examples disclosed herein, for nucleoside labeling experiments in Flp-In Hela cells overexpressing UCK2, HeLa cells were seeded at 0.4×10^6 cells per well in 35 mm glass bottom petri dishes. After 16 hours, cells were induced for 16 hours with 1 μg/mL tetracycline.
In some embodiments, the method may include exposing 140 the plurality of live cells to a first quantity of the fluorescent nucleoside for a first period of time. The first period of time is typically 1-24 hours, and may be, e.g., 6-12 hours. In some examples disclosed herein, after being exposed to tetracycline, the HeLa cells were treated with 500 μM of fluorescent nucleosides for 12 hours.
It was next evaluated whether the fluorescent nucleosides could be incorporated into living cells. For this purpose, HeLa cells expressing ribonucleoside kinase UCK2 under the control of a tetracycline-inducible promoter (i.e., Flp-In T-Rex system) were used. The incorporate was monitored using fluorescence microscopy and quantitative nucleoside LC-QQQ-MS. The T-Rex system provides a convenient method to analyze the effect of UCK2 expression on nucleoside incorporation. Previously, it has been shown that UCK2 is rate limiting for the metabolic incorporation of modified pyrimidines through salvage pathways.
(§1) To test nucleoside incorporation, HeLa cells were treated with 500 μM of each fluorescent nucleoside for 12 hr and then imaged cells by epifluorescence microscopy after washing out free nucleoside. A DAPI filter set (375 nm, 435 nm) was chosen due to its availability on most fluorescence microscopes and since the excitation and emission band pass wavelengths overlapped with the spectra of each of the synthetic nucleosides, although the degree of overlap varies considerably based upon the nucleoside structure. Further, it was tested whether induction of UCK2 expression (WT or Y65G mutant) affects incorporation levels. […] Fluorescence signal was concentrated in the nucleus, but was also found in the cytoplasm, consistent with RNA incorporation.
First, feeding was performed in the presence of actinomycin D (ActD), a potent inhibitor of RNA polymerase I and II. […] In addition, total cellular RNA was isolated and nucleoside LC-QQQ-MS was performed after digestion and dephosphorylation to nucleosides. […] This system should be suitable for live-cell imaging of the bulk RNA population.

UCK2 = target: T1, UCK2 (Homo sapiens, UniProt Q9BZX2); experiment: HPLC-based in vitro phosphorylation by recombinant purified UCK2; assay type: biochemical; conditions: even after extended reaction times
T1 sequence (Q9BZX2 1-261): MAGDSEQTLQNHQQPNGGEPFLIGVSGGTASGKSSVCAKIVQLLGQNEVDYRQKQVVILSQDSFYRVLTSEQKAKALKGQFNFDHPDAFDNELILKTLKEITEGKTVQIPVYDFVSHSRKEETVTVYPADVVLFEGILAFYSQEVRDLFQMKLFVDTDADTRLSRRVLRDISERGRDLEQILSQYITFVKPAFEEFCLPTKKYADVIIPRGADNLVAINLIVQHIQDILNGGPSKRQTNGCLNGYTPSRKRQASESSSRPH
Excerpt: To further understand the incorporation of bulky fluorescent nucleosides into cellular RNA and the involvement of UCK2 in this process, the phosphorylation of modified nucleosides by recombinant, purified UCK2 was studied using an HPLC-based in vitro assay.

HeLa cells = experiment: Cytotoxicity seen during nucleoside labeling of HeLa cells; assay type: cell-based, human; conditions: 500 μM, 12 hr
Procedure: as §1

Structure (SMILES): CCN(CC)c1ccc2c(c1)Nc1nc(=O)n([C@@H]3O[C@H](CO)[C@@H](O)[C@H]3O)cc1S2 [^DEAtC]
- fluorescence quantum yield Φem, free nucleoside ([1]; free nucleoside, tC 513 nm in 1× PBS pH 7.4, DEAtC 493 nm, MeOtC 550 nm): 0.006
- fluorescence quantum yield Φem in matched duplex DNA / dsDNA ([1]; tC 513 nm, DEAtC 500 nm, MeOtC 532 nm): 0.12
- fluorescent cellular labeling [2]: not observed
- phosphorylation by UCK2, extended reaction times (UCK2): no phosphorylation
- cytotoxicity (HeLa cells): significant cytotoxicity
